Read-outs that look alike come from different tables or passages of the source. A value given as a limit tells only on which side of the number the result lay.

The test system of data set [1] is MDCK cells. Put plainly: Cytotoxicity to MDCK cells (compound toxicity control, MTT). As to conditions: for IC50: read-out: Cytotoxicy IC50, half maximal cytotoxicity concentration to MDCK cells, MTT; for IC50 at 3 day: dog.
Data set [2] concerns Influenza H1N1 virus. The data set is described as follows: Viral cytopathic effect (CPE) assay. It counts as cell-based, Influenza A (H1N1). The method, then:
Cells and viruses. Madin-Darby canine kidney cell (MDCK) was purchased from American type culture collection (ATCC) and was maintained in minimal essential medium (MEM) containing 10% fetal bovine serum and antibiotics. Influenza A/Weiss/43 (H1N1), A/PR/8/34 (H1N1), and A/Hongkong/8/68 (H3N2) were purchased from ATCC and propagated in 10-day-old embryonated chicken eggs at 37° C. Virus was harvested 48 h after inoculation as pooled allantoic fluid. After a brief centrifugation (3,000 rpm at room temperature for 20 min) and virus titer measurement by a hemagglutination test, virus was aliquoted and stored at a −80° C. freezer.
Viral cytopathic effect (CPE) assay: To measure anti-influenza activity of compounds, MDCK cells were seeded into 96-well plates at a density of 5,000 cells per well. Next day, compounds were serially half-log diluted with Gibco SFM containing trypsin. Compounds and 50 pfu of virus were added into corresponding wells to make m.o.i at 0.01 and a final trypsin concentration of 2.5 μg/ml. The testing plates also contained medium control, cell control, virus control, and compound toxicity control. After a 3-day treatment, cell viability was measured with a MTT (3-(4,5-dimethylthiazol-2-yl)-2,5-diphenyltetrazolium bromide) method. Briefly, 20 μl of MTT diluted in culture medium was added into each wells and incubated at 37° C. for 4 hours. Reduced MTT (formazan) was extracted with acidic isopropanol and absorbance at wavelengths of 570 nm and 630 nm (OD570 and OD630) was read on a microtiter plate reader. After subtraction of background OD values, dose response curves of half-log concentration vs. percent protection were generated, on which half maximal effective concentration (EC50) and half maximal toxic concentration (CC50) were calculated.

Data set [3] relates to MDCK cells. To be noted: dog, 3 day.
In data set [4] the test system is H1 and H2 viruses. To be noted: cited from earlier work.
Data set [5] concerns H3 viruses. As to conditions: cited from earlier work.
Data set [6] relates to MDCK cells. Put plainly: in vitro. To be noted: dog, Cytotoxicy IC50.
Data set [7] deals with H3 influenza viruses. To be noted: cited from earlier work.
Where [8] appears, read: H1N1; MDCK cells, m.o.i 0.01, 3-day treatment, MTT OD; mean of triplicate experiments; read-out: CPE_EC50.
Where [9] appears, read: Influenza A virus, H1N1, MDCK, 72 h, read-out: CPE_EC50.

`CC1(C)C[C@@H](O)C[C@@](C)(CNc2cc(Cl)cc(C#N)c2)C1` (relative stereo) [Example IIa-23, 3-Chloro-5-[((cis-1,5)-5-hydroxy-1,3,3-trimethyl-cyclohexylmethyl)-amino]-benzonitrile]: the IC50 in data set [1] is 13.9 µM. Also, the EC50 in data set [2] (setting [8]) turned out to be 0.034 µM.

Turning to `CC1(C)CC(O)CC(CNc2cc(F)cc(C(F)(F)F)c2)C1` (single isomer, unassigned) [Example IIi-1/2 Isomer 1, (cis-1,5)-5-[(3-Fluoro-5-trifluoromethyl-phenylamino)-methyl]-3,3-dimethyl-cyclohexanol], in data set [2] (setting [9]), the EC50 was less than 0.31 µM. The midpoint of inhibition in data set [3], the IC50, lay at 8.16 µM.

Regarding `CC1(C)CC(O)CC(CNc2cc(F)cc(C(F)(F)F)c2)C1` (single isomer, unassigned) [Example IIi-1/2 Isomer 2, (trans-1,5)-5-[(3-fluoro-5-trifluoromethyl-phenylamino)-methyl]-3,3-dimethyl-cyclohexanol], in data set [2] (read-out: CPE_EC50; H1N1; MDCK cells, m.o.i 0.01, 3-day treatment, MTT OD; mean of triplicate experiments), the EC50 was less than 0.31 µM. Further, the IC50 in data set [3] was 16.8 µM.

`C[C@@H]1CCC[C@@H]2C[C@@H](NC(=O)c3cc(Cl)c(N)cc3O)CCN21` [BMY 27709]: the EC50 in data set [4] (read-out: anti-flu activity EC50) was 6 to 8 µM. In data set [5], the “activity against H3 viruses” value is on record as “not H3 viruses”.

In data set [1], `CC1(C)CC(O)CC(C)(CNc2ccc(C#N)c(Cl)c2)C1` (stereo not drawn) [Example IIa-29, 2-Chloro-4-[((cis-1,5)-5-hydroxy-1,3,3-trimethyl-cyclohexylmethyl)-amino]-benzonitrile] displayed a half-maximal inhibitory concentration (IC50) at 3 day of 8.22 µM. Further, in data set [2] (setting [9]), the EC50 amounted to 0.18 µM.

In the case of `CC1(C)CC(O)CC(C)(CNc2ccc(Cl)c(C#N)c2)C1` (stereo not drawn) [Example IIa-30, 2-Chloro-5-[((cis-1,5)-5-hydroxy-1,3,3-trimethyl-cyclohexylmethyl)-amino]-benzonitrile], the 50% inhibitory concentration (IC50) at 3 day in data set [1] turned out to be 7.99 µM. Also, in data set [2] (setting [9]), the EC50 worked out at 0.14 µM.

Turning to `CC1(C)CC(O)CC(C)(CNc2ccc(C#N)c(C(F)(F)F)c2)C1` (stereo not drawn) [Example IIa-33, 4-[((cis-1,5)-5-Hydroxy-1,3,3-trimethyl-cyclohexylmethyl)-amino]-2-trifluoromethyl-benzonitrile], the 50% inhibitory concentration (IC50) at 3 day in data set [1] was found to be 8.35 µM. In addition, the EC50 in data set [2] (setting [9]) stood at 0.049 µM.

For the compound `COc1cc(NC(=O)C2(C)CC(O)CC(C)(C)C2)cc(C(F)(F)F)c1` (stereo not drawn) [Example IVa-16, (cis-1,5)-5-Hydroxy-1,3,3-trimethyl-cyclohexanecarboxylic acid(3-methoxy-5-trifluoromethyl-phenyl)-amide], the EC50 in data set [2] (setting [9]) worked out at 0.06 µM. In data set [6], this compound registered an IC50 at 3 day of 74.8 µM.

With `CC1(C)CC(O)CC(C)(C(=O)Nc2cc(Cl)cc(Cl)c2)C1` (stereo not drawn) [Example IVa-17, (cis-1,5)-5-Hydroxy-1,3,3-trimethyl-cyclohexanecarboxylic acid(3,5-dichloro-phenyl)-amide], the EC50 in data set [2] (setting [9]) turned out to be 0.049 µM. In addition, in data set [6], the 50% inhibitory concentration (IC50) at 3 day worked out at 23.2 µM.

Consider `CC1(C)CC(O)CC(C)(C(=O)Nc2ccc(Cl)c(F)c2)C1` (stereo not drawn) [Example IVa-19, (cis-1,5)-5-Hydroxy-1,3,3-trimethyl-cyclohexanecarboxylic acid(4-chloro-3-fluoro-phenyl)amide], for which the EC50 in data set [2] (setting [9]) worked out at 1.8 µM. This compound came in with an IC50 at 3 day in data set [6] of 30.9 µM.

With `CC1(C)CC(O)CC(C)(C(=O)Nc2ccc(Cl)c(Cl)c2)C1` (stereo not drawn) [Example IVa-20, (cis-1,5)-5-Hydroxy-1,3,3-trimethyl-cyclohexanecarboxylic acid(3,4-dichloro-phenyl)-amide], the EC50 in data set [2] (setting [9]) was 0.627 µM. The IC50 at 3 day in data set [6] came to 9.63 µM.

On to `CC1(C)CC(O)CC(C)(C(=O)Nc2ccc(F)c(C(F)(F)F)c2)C1` (stereo not drawn) [Example IVa-21, (cis-1,5)-5-Hydroxy-1,3,3-trimethyl-cyclohexanecarboxylic acid(4-fluoro-3-trifluoromethyl-phenyl)-amide], for which the EC50 in data set [2] (setting [9]) worked out at 0.454 µM. The compound also displayed an IC50 at 3 day in data set [6] of 29.6 µM.

For the compound `CC(=O)NC1CC(C)(C)CC(C)(C(=O)Nc2cccc(Cl)c2)C1` (stereo not drawn) [Example IVb-2, (cis-1,5)-5-Acetylamino-1,3,3-trimethyl-cyclohexanecarboxylic acid(3-chloro-phenyl)-amide], the EC50 in data set [2] (setting [9]) was determined as 4.61 µM. Further, the half-inhibitory concentration (IC50) at 3 day in data set [6] is more than 100 µM.

Consider `CC(=O)N(C(C)=O)C1CC(C)(C)CC(C)(C(=O)Nc2cccc(Cl)c2)C1` (stereo not drawn) [Example IVb-3, (cis-1,5)-Diacetylamino-1,3,3-trimethyl-cyclohexanecarboxylic acid(3-chloro-phenyl)-amide], for which, in data set [2] (setting [9]), the EC50 was found to be 3.15 µM. For the same compound, half-maximal inhibition in data set [6] (IC50 at 3 day) required 22.9 µM.

Take `CC1(C)CC(NS(C)(=O)=O)CC(C)(C(=O)Nc2cccc(Cl)c2)C1` (stereo not drawn) [Example IVb-4, (cis-1,5)-5-Methanesulfonylamino-1,3,3-trimethyl-cyclohexanecarboxylic acid(3-chloro-phenyl)-amide]: in data set [2] (setting [9]), the EC50 was 2.77 µM. The half-maximal inhibitory concentration (IC50) at 3 day in data set [6] was more than 100 µM.

On to `CC(C)(C)c1cc(O)ccc1O` [TBHQ, tert-butyl hydroquinone], for which the inhibition of fusion result in data set [7] was “inhibits fusion”.

`C[C@H]1CC[C@H]2C(C)(C)[C@@H](O)CC[C@]23Oc2c(c(O)cc4c2CNC4=O)C[C@]13C` [stachyflin]: the “block of influenza virus replication” value in data set [4] is given as “blocked”. In data set [5], the “activity against H3 viruses” value is “not H3 viruses”.

With “(cis-1,5)-5-Hydroxy-1,3,3-trimethyl-cyclohexanecarboxylic acid(4-chloro-3-trifluoromethyl-phenyl)-amide [Example IVa-22]”, in data set [1], the IC50 stood at 7.49 µM. For the same compound, the EC50 in data set [2] (setting [8]) was 0.165 µM.

The values are drawn from US20110195979A1, “COMPOUNDS FOR THE TREATMENT AND PREVENTION OF INFLUENZA” (priority 2010, published 2011).
